Measured values: the NIST ThermoML archive (doi:10.1021/je400274f)
Several values for one entry are separate records, joined by “and”; a condition that tells them apart may be missing. Equal values may be shown once. ± gives the expanded uncertainty stated by the source.

Conditions: 101.33 kPa, Liquid; for viscosity: Concentric cylinders viscometry; for speed of sound: Pulse-echo method; for mass density: Vibrating tube method

SMILES	viscosity (283.15 K) [mPa·s]	speed of sound (283.15 K) [m/s]	mass density (283.15 K)	viscosity (293.15 K) [mPa·s]	speed of sound (293.15 K) [m/s]	mass density (293.15 K)	viscosity (303.15 K) [mPa·s]	speed of sound (303.15 K) [m/s]	mass density (303.15 K)	viscosity (313.15 K) [mPa·s]	speed of sound (313.15 K) [m/s]	mass density (313.15 K)	viscosity (323.15 K) [mPa·s]	speed of sound (323.15 K) [m/s]	mass density (323.15 K)	viscosity (333.15 K) [mPa·s]	mass density (333.15 K) [kg/m3]	viscosity (343.15 K) [mPa·s]	mass density (343.15 K) [kg/m3]	viscosity (353.15 K) [mPa·s]	further results
CCCCCCCCCCCCCC(C)C [2-methylpentadecane]	4.6 ± 0.29	1378.7 ± 6.1	782.2 ± 4.9 kg/m3 and 781.8 ± 4.9 kg/m3	3.52 ± 0.24	1341 ± 6.1	774.9 ± 4.9 kg/m3 and 775 ± 4.9 kg/m3	2.77 ± 0.16	1303.8 ± 6.1	767.9 ± 4.8 kg/m3 and 768 ± 4.8 kg/m3	2.24 ± 0.16	1267.3 ± 6.1	761 ± 4.7 kg/m3	1.85 ± 0.11	1231.6 ± 6.1	754.1 ± 4.6 kg/m3 and 754 ± 4.6 kg/m3	1.55 ± 0.08	747 ± 4.5	1.33 ± 0.06	740 ± 4.5	1.14 ± 0.07	mass density (353.15 K): 733 ± 4.4 kg/m3; viscosity (363.15 K): 1 ± 0.05 mPa·s; mass density (363.15 K): 726 ± 4.3 kg/m3; viscosity (373.15 K): 0.88 ± 0.03 mPa·s; mass density (373.15 K): 718.9 ± 4.2 kg/m3
CCCCCCCCC(C)CC (centres undefined) [3-methylundecane]	1.73 ± 0.03	1330.2 ± 2.3	758.6 ± 0.6 kg/m3 and 758.3 ± 0.6 kg/m3	1.43 ± 0.03	1291 ± 2.3	751.1 ± 0.6 kg/m3 and 751.3 ± 0.6 kg/m3	1.2 ± 0.02	1252.2 ± 2.3	743.9 ± 0.6 kg/m3 and 744 ± 0.6 kg/m3	1.01 ± 0.02	1214 ± 2.3	736.6 ± 0.6 kg/m3 and 736.7 ± 0.6 kg/m3	0.883 ± 0.021	1176.6 ± 2.3	729.3 ± 0.6 kg/m3	0.771 ± 0.019	721.9 ± 0.6	0.68 ± 0.017	714.4 ± 0.6	0.605 ± 0.014	mass density (353.15 K): 707 ± 0.6 kg/m3; viscosity (363.15 K): 0.543 ± 0.012 mPa·s; mass density (363.15 K): 699.4 ± 0.6 kg/m3; viscosity (373.15 K): 0.492 ± 0.012 mPa·s; mass density (373.15 K): 691.9 ± 0.6 kg/m3
CCCCCCCCCC(C)CCCCCC (centres undefined) [7-methylhexadecane]	5.36 ± 0.52	1392.5 ± 2.3	787.6 ± 0.6 kg/m3	4 ± 0.4	1354.9 ± 2.3	780.7 ± 0.6 kg/m3	3.09 ± 0.28	1317.7 ± 2.3	773.9 ± 0.6 kg/m3 and 773.8 ± 0.6 kg/m3	2.47 ± 0.22	1281.3 ± 2.3	767 ± 0.6 kg/m3 and 766.9 ± 0.6 kg/m3	2 ± 0.18	1245.5 ± 2.3	760.2 ± 0.6 kg/m3 and 760 ± 0.6 kg/m3	1.66 ± 0.16	753.1 ± 0.6	1.41 ± 0.12	746.2 ± 0.6	1.21 ± 0.08	mass density (353.15 K): 739.3 ± 0.6 kg/m3; viscosity (363.15 K): 1.05 ± 0.08 mPa·s; mass density (363.15 K): 732.4 ± 0.6 kg/m3; viscosity (373.15 K): 0.91 ± 0.05 mPa·s; mass density (373.15 K): 725.4 ± 0.6 kg/m3
CCCCCCC(C)C [2-methyloctane]	0.776 ± 0.017	1242.2 ± 1.5	723.2 ± 0.5 kg/m3 and 723.2 ± 0.3 kg/m3	0.676 ± 0.015	1201.3 ± 1.5	715.4 ± 0.3 kg/m3 and 715.3 ± 0.4 kg/m3	0.594 ± 0.013	1160.7 ± 1.5	707.6 ± 0.3 kg/m3 and 707.4 ± 0.4 kg/m3	0.499 ± 0.011	1120.7 ± 1.5	699.6 ± 0.3 kg/m3 and 699.4 ± 0.4 kg/m3	0.47 ± 0.011	1081.2 ± 1.5	691.6 ± 0.4 kg/m3 and 691.4 ± 0.4 kg/m3	0.422 ± 0.01	683.3 ± 0.4	0.381 ± 0.009	675.1 ± 0.4	0.345 ± 0.008	mass density (353.15 K): 666.7 ± 0.4 kg/m3; viscosity (363.15 K): 0.315 ± 0.008 mPa·s; mass density (363.15 K): 658.2 ± 0.4 kg/m3; viscosity (373.15 K): 0.288 ± 0.008 mPa·s; mass density (373.15 K): 649.7 ± 0.5 kg/m3
CCC(C)CC(C)CC (centres undefined) [3,5-dimethylheptane]	0.792 ± 0.018	1245.1 ± 1.9	734.1 ± 0.5 kg/m3 and 734 ± 0.4 kg/m3	0.688 ± 0.016	1203.3 ± 1.9	726.2 ± 0.4 kg/m3 and 726.3 ± 0.5 kg/m3	0.604 ± 0.014	1162 ± 1.9	718.4 ± 0.4 kg/m3 and 718.4 ± 0.5 kg/m3	0.508 ± 0.012	1121.3 ± 1.9	710.5 ± 0.4 kg/m3 and 710.5 ± 0.5 kg/m3	0.477 ± 0.012	1081.4 ± 1.9	702.5 ± 0.4 kg/m3 and 702.5 ± 0.5 kg/m3	0.428 ± 0.01	694.5 ± 0.5	0.386 ± 0.01	686.3 ± 0.5	0.35 ± 0.01	mass density (353.15 K): 678 ± 0.5 kg/m3; viscosity (363.15 K): 0.319 ± 0.008 mPa·s; mass density (363.15 K): 669.7 ± 0.5 kg/m3; mass density (373.15 K): 661.2 ± 0.5 kg/m3
CCC(C)CCC(C)CC (centres undefined) [3,6-dimethyloctane]	0.988 ± 0.022	1277.8 ± 1.7	746.6 ± 0.4 kg/m3 and 746.6 ± 0.5 kg/m3	0.846 ± 0.018	1236.7 ± 1.7	738.9 ± 0.5 kg/m3 and 738.9 ± 0.4 kg/m3	0.733 ± 0.016	1196.2 ± 1.7	731.2 ± 0.5 kg/m3 and 731.1 ± 0.4 kg/m3	0.62 ± 0.014	1156.3 ± 1.9	723.5 ± 0.6 kg/m3 and 723.3 ± 0.4 kg/m3	0.568 ± 0.014	1117.2 ± 1.7	715.7 ± 0.6 kg/m3 and 715.5 ± 0.4 kg/m3	0.506 ± 0.012	707.6 ± 0.4	0.453 ± 0.01	699.6 ± 0.4	0.409 ± 0.01	mass density (353.15 K): 691.5 ± 0.4 kg/m3; viscosity (363.15 K): 0.372 ± 0.01 mPa·s; mass density (363.15 K): 683.3 ± 0.4 kg/m3; viscosity (373.15 K): 0.328 ± 0.008 mPa·s; mass density (373.15 K): 674.9 ± 0.5 kg/m3
CCCCCCCCC(C)C [2-methyldecane]	1.37 ± 0.02	1295.5 ± 1.3	745.7 ± 0.3 kg/m3 and 745.8 ± 0.3 kg/m3	1.15 ± 0.04	1256.2 ± 1.3	738.4 ± 0.3 kg/m3 and 738.3 ± 0.3 kg/m3	0.977 ± 0.021	1217.1 ± 1.3	730.9 ± 0.3 kg/m3	0.83 ± 0.017	1178.8 ± 1.3	723.5 ± 0.3 kg/m3 and 723.2 ± 0.3 kg/m3	0.736 ± 0.015	1141 ± 1.3	715.9 ± 0.3 kg/m3 and 715.7 ± 0.3 kg/m3	0.647 ± 0.017	708.1 ± 0.3	0.575 ± 0.017	700.5 ± 0.3	0.514 ± 0.015	mass density (353.15 K): 692.8 ± 0.4 kg/m3; viscosity (363.15 K): 0.464 ± 0.013 mPa·s; mass density (363.15 K): 684.9 ± 0.4 kg/m3; viscosity (373.15 K): 0.422 ± 0.011 mPa·s; mass density (373.15 K): 677 ± 0.4 kg/m3
CCCCC(C)CCC (centres undefined) [4-methyloctane]	0.719 ± 0.021	1254.9 ± 1.5	727.5 ± 0.4 kg/m3 and 727.6 ± 0.3 kg/m3	0.628 ± 0.021	1213 ± 1.5	719.8 ± 0.3 kg/m3 and 719.7 ± 0.4 kg/m3	0.554 ± 0.021	1171.6 ± 1.5	711.9 ± 0.3 kg/m3 and 711.7 ± 0.4 kg/m3	0.453 ± 0.08	1130.8 ± 1.5	703.9 ± 0.3 kg/m3 and 703.7 ± 0.4 kg/m3	0.441 ± 0.021	1090.7 ± 1.5	695.9 ± 0.3 kg/m3 and 695.7 ± 0.4 kg/m3	0.397 ± 0.021	687.5 ± 0.4	0.368 ± 0.06	679.3 ± 0.4	0.329 ± 0.04	mass density (353.15 K): 671 ± 0.4 kg/m3; viscosity (363.15 K): 0.294 ± 0.04 mPa·s; mass density (363.15 K): 662.5 ± 0.4 kg/m3; viscosity (373.15 K): 0.261 ± 0.04 mPa·s; mass density (373.15 K): 653.9 ± 0.4 kg/m3
CCCCCCCC(C)C [2-methylnonane]	1.037 ± 0.022	1271.4 ± 1.5	734.7 ± 0.4 kg/m3 and 734.5 ± 0.3 kg/m3	0.887 ± 0.02	1231.1 ± 1.5	726.9 ± 0.3 kg/m3 and 727.1 ± 0.4 kg/m3	0.768 ± 0.017	1191.3 ± 1.5	719.3 ± 0.3 kg/m3 and 719.4 ± 0.4 kg/m3	0.653 ± 0.015	1152 ± 1.5	711.6 ± 0.3 kg/m3 and 711.7 ± 0.4 kg/m3	0.595 ± 0.013	1113.4 ± 1.5	703.9 ± 0.3 kg/m3 and 703.9 ± 0.4 kg/m3	0.529 ± 0.012	696 ± 0.4	0.475 ± 0.011	688.1 ± 0.4	0.428 ± 0.01	mass density (353.15 K): 680.2 ± 0.4 kg/m3; viscosity (363.15 K): 0.388 ± 0.009 mPa·s; mass density (363.15 K): 672.1 ± 0.4 kg/m3; viscosity (373.15 K): 0.355 ± 0.009 mPa·s; mass density (373.15 K): 664 ± 0.4 kg/m3
